Assay results from ChEMBL document CHEMBL4334471, “Discovery of 1,8-disubstituted-[1,2,3]triazolo[4,5-c]quinoline derivatives as a new class of Hippo signaling pathway inhibitors” (Bioorg Med Chem Lett, 2019).

Assays:
[1] = test system: Tyrosine-protein kinase ABL1 (Homo sapiens), P00519 [Q252H]; assay: Inhibition of human ABL1 Q252H mutant (27 to end residues) assessed as residual activity at 10 uM using EAIYAAPFAKKK as substrate incubated for 40 mins in presence of [gamma-33ATP] by scintillation counting based radiometry assay relative to control
[2] = molecular target: Activin receptor type-2A (Homo sapiens) (UniProt P27037); assay: Inhibition of human ACTR2 (162 to end residues) assessed as residual activity at 10 uM using casein as substrate incubated for 120 mins in presence of [gamma-33ATP] by scintillation counting based radiometry assay relative to control
Sequence of Activin receptor type-2A (Homo sapiens) (P27037 whole entry): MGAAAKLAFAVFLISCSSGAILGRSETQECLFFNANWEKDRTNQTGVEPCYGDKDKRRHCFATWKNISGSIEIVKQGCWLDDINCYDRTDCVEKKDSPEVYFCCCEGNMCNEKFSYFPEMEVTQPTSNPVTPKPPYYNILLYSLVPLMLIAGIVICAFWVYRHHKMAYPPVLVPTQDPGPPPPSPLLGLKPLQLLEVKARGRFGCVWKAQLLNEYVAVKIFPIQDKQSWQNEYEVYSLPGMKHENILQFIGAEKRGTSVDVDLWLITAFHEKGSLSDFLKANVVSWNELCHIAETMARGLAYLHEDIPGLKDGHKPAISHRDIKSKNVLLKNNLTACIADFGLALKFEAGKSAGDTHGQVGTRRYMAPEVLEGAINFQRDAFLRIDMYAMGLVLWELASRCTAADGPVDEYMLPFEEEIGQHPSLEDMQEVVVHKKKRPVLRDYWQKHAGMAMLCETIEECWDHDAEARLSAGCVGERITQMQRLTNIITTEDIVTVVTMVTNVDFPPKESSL

[3] = organism: Mus musculus; assay: Inhibition of mouse Arg M982V/A562 mutant (27 to end residues) assessed as residual activity at 10 uM using EAIYAAPFAKKK as substrate incubated for 40 mins in presence of [gamma-33ATP] by scintillation counting based radiometry assay relative to control
[4] = molecular target: Cytoplasmic tyrosine-protein kinase BMX (Homo sapiens) (UniProt P51813); assay: Inhibition of recombinant full length human BMX assessed as residual activity at 10 uM using poly(Glu, Tyr) 4:1 as substrate incubated for 40 mins in presence of [gamma-33ATP] by scintillation counting based radiometry assay relative to control
Sequence of Cytoplasmic tyrosine-protein kinase BMX (Homo sapiens) (P51813 whole entry): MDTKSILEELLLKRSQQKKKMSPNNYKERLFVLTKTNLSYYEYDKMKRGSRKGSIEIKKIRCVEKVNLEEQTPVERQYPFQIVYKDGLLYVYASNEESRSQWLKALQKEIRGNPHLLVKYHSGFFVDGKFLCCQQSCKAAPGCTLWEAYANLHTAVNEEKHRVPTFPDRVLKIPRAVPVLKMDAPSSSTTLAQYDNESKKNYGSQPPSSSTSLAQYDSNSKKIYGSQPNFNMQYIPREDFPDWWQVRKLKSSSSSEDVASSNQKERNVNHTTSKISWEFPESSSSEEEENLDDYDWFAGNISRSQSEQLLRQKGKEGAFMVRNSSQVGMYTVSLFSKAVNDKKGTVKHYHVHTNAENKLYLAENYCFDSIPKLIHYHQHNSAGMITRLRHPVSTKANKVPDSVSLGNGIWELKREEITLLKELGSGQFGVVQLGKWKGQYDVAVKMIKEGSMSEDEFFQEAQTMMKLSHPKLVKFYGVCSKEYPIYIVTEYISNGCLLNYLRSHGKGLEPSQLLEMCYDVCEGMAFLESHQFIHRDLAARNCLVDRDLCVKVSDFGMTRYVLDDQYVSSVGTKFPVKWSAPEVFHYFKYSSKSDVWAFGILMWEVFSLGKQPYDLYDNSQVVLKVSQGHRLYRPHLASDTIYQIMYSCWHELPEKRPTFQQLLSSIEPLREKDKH

[5] = molecular target: Cyclin-dependent kinase 5/CDK5 activator 1 (Homo sapiens) (UniProt Q00535+Q15078); assay: Inhibition of recombinant full length human CDK5/p35 assessed as residual activity at 10 uM using histone H1 as substrate incubated for 40 mins in presence of [gamma-33ATP] by scintillation counting based radiometry assay relative to control; assay type: protein-complex assay
[6] = molecular target: Ephrin type-A receptor 5 (Homo sapiens) (UniProt P54756); assay: Inhibition of recombinant human EphA5 (655to 956 residues) assessed as residual activity at 10 uM using poly(Glu, Tyr) 4:1 as substrate at 40 mins in presence of [gamma-33ATP] by scintillation counting based radiometry assay relative to control
[7] = molecular target: Vascular endothelial growth factor receptor 2 (Homo sapiens) (UniProt P35968); assay: Inhibition of human KDR (790 to end residues) assessed as residual activity at 10 uM using myelin basic protein as substrate after 40 mins by [gamma-33ATP] radiometric assay relative to control
[8] = molecular target: Tyrosine-protein kinase Lck (Homo sapiens) (UniProt P06239); assay: Inhibition of recombinant full length human LCK assessed as residual activity at 10 uM using KVEKIGEGTYGVV as substrate after 40 mins in presence of [gamma-33ATP] by scintillation counting based radiometry assay relative to control
[9] = molecular target: Serine/threonine-protein kinase STK11 (Homo sapiens) (UniProt Q15831); assay: Inhibition of recombinant human LKB1 assessed as residual activity at 10 uM using LSNLYHQGKFLQT as substrate after 40 mins in presence of [gamma-33ATP] by scintillation counting based radiometry assay relative to control
[10] = molecular target: Tyrosine-protein kinase Lyn (Homo sapiens) (UniProt P07948); assay: Inhibition of recombinant human Lyn assessed as residual activity at 10 uM using poly(Glu, Tyr) 4:1 as substrate after 40 mins in presence of [gamma-33ATP] by scintillation counting based radiometry assay relative to control
[11] = molecular target: Serine/threonine-protein kinase Nek2 (Homo sapiens) (UniProt P51955); assay: Inhibition of recombinant full-length human NEK2 assessed as residual activity at 10 uM using myelin basic protein as substrate measured after 40 mins in presence of [gamma33P]ATP by scintillation counting based radiometry assay relative to control
[12] = molecular target: Serine/threonine-protein kinase NIM1 (Homo sapiens) (UniProt Q8IY84); assay: Inhibition of recombinant full length human NIM1 assessed as residual activity at 10 uM using KKKVSRSGLYRSPSMPENLNRPR as substrate measured after 40 mins in presence of [gamma33P]ATP by scintillation counting based radiometry assay relative to control
[13] = test system: Serine/threonine-protein kinase D1 (Homo sapiens), Q15139 [UNDEFINED MUTATION]; assay: Inhibition of recombinant full-length human PKCmu R135A mutant assessed as residual activity at 10 uM using KKLNRTLSVA as substrate incubated for 40 mins in presence of [gamma33P]ATP by scintillation counting based radiometry assay relative to control
[14] = molecular target: Serine/threonine-protein kinase PLK1 (Homo sapiens) (UniProt P53350); assay: Inhibition of recombinant full-length human Plk1 assessed as residual activity at 10 uM using casein as substrate incubated for 40 mins in presence of [gamma33P]ATP by scintillation counting based radiometry assay relative to control
Sequence of Serine/threonine-protein kinase PLK1 (Homo sapiens) (P53350 whole entry): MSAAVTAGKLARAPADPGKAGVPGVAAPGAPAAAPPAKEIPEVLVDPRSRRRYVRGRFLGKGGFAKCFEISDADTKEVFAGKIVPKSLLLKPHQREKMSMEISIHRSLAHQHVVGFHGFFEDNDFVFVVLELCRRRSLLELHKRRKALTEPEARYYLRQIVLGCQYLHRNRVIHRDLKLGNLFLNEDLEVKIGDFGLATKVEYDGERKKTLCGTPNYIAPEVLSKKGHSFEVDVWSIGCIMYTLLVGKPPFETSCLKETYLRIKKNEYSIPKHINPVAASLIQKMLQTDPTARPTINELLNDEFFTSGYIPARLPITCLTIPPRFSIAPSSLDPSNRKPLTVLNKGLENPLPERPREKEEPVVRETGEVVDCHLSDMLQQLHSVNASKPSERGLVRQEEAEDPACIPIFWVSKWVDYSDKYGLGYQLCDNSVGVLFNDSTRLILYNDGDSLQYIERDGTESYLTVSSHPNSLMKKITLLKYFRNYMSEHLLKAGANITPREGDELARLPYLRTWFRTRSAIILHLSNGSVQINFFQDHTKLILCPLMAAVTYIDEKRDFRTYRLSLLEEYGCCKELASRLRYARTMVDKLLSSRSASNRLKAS

[15] = organism: Homo sapiens; assay: Inhibition of recombinant full length human PRAK R291E mutant assessed as residual activity at 10 uM using KKLRRTLSVA as substrate incubated for 40 mins in presence of [gamma33P]ATP by scintillation counting based radiometry assay relative to control
[16] = molecular target: cAMP-dependent protein kinase catalytic subunit PRKX (Homo sapiens) (UniProt P51817); assay: Inhibition of recombinant human full length PrKX assessed as residual activity at 10 uM using RRRLSFAEPG as substrate incubated for 40 mins in presence of [gamma33P]ATP by scintillation counting based radiometry assay relative to control
[17] = molecular target: Receptor-interacting serine/threonine-protein kinase 2 (Homo sapiens) (UniProt O43353); assay: Inhibition of recombinant human RIPK2 (1 to 299 residues) assessed as residual activity at 10 uM using myelin basic protein as substrate incubated for 120 mins in presence of [gamma33P]ATP by scintillation counting based radiometry assay relative to control
[18] = molecular target: Macrophage-stimulating protein receptor (Homo sapiens) (UniProt Q04912); assay: Inhibition of recombinant human Ron (983 to end residues) assessed as residual activity at 10 uM using GGMEDIYFEFMGGKKK as substrate incubated for 40 mins in presence of [gamma33P]ATP by scintillation counting based radiometry assay relative to control
Sequence of Macrophage-stimulating protein receptor (Homo sapiens) (Q04912 25-304 limits assumed): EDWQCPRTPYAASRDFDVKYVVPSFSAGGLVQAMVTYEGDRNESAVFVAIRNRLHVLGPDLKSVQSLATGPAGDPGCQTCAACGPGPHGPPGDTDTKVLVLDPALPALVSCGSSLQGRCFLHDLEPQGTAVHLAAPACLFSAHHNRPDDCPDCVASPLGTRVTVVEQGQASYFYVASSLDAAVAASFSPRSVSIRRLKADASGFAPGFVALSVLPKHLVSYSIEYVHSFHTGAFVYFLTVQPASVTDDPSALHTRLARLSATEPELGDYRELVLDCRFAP
Sequence of Macrophage-stimulating protein receptor (Homo sapiens) (Q04912 310-1400 limits assumed): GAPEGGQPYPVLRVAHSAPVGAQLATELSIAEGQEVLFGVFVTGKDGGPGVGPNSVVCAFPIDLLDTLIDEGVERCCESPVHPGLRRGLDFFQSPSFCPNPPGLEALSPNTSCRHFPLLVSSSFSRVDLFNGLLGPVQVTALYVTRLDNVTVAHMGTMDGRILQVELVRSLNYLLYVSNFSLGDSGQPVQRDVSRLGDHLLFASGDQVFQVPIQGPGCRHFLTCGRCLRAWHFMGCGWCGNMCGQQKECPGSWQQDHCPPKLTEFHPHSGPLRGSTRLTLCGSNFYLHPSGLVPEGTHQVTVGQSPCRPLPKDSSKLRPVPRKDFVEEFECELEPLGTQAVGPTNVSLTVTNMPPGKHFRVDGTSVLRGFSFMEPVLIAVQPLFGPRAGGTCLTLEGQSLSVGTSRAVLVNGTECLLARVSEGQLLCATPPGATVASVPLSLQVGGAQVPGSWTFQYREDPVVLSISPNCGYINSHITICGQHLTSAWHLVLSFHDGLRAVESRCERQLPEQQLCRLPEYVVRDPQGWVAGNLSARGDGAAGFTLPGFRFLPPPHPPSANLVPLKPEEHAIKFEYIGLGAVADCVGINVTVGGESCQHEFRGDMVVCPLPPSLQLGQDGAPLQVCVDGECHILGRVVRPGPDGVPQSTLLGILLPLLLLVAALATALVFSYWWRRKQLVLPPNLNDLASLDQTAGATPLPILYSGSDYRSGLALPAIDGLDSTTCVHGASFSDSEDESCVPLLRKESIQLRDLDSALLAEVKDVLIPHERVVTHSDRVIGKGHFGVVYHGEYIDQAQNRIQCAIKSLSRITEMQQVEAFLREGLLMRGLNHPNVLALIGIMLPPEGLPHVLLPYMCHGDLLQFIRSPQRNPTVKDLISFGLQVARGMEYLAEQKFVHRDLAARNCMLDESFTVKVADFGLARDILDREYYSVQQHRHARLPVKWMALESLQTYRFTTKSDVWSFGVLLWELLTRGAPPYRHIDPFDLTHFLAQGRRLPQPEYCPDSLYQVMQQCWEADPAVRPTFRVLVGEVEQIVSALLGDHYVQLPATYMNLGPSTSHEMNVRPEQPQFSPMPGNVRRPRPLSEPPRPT

[19] = molecular target: Serine/threonine-protein kinase 16 (Homo sapiens) (UniProt O75716); assay: Inhibition of human STK16 assessed as residual activity at 10 uM in presence of [gamma33P]ATP by scintillation counting based radiometry assay relative to control
[20] = molecular target: Serine/threonine-protein kinase 32C (Homo sapiens) (UniProt Q86UX6); assay: Inhibition of recombinant human full length STK32C assessed as residual activity at 10 uM using casein as substrate incubated for 40 mins in presence of [gamma33P]ATP by scintillation counting based radiometry assay relative to control
Sequence of Serine/threonine-protein kinase 32C (Homo sapiens) (Q86UX6 whole entry): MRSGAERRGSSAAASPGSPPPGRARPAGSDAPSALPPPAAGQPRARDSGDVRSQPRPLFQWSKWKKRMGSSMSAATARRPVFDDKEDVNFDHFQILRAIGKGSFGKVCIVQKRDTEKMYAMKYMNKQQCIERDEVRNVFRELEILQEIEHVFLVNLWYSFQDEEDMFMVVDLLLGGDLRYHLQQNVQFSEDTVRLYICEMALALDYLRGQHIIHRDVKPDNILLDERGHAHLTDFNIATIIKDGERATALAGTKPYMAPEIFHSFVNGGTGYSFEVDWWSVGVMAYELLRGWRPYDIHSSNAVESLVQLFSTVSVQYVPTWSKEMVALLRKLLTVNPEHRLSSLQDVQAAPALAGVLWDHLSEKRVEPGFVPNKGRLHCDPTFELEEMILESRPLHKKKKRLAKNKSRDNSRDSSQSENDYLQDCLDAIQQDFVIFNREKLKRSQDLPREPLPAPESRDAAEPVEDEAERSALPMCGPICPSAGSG

[21] = molecular target: Wee1-like protein kinase 2 (Homo sapiens) (UniProt P0C1S8); assay: Inhibition of recombinant full length human WEE1b assessed as residual activity at 10 uM using LSNLYHQGKFLQTFCGSPLYRRR as substrate incubated for 40 mins in presence of [gamma33P]ATP by scintillation counting based radiometry assay relative to control
Sequence of Wee1-like protein kinase 2 (Homo sapiens) (P0C1S8 whole entry, looked up): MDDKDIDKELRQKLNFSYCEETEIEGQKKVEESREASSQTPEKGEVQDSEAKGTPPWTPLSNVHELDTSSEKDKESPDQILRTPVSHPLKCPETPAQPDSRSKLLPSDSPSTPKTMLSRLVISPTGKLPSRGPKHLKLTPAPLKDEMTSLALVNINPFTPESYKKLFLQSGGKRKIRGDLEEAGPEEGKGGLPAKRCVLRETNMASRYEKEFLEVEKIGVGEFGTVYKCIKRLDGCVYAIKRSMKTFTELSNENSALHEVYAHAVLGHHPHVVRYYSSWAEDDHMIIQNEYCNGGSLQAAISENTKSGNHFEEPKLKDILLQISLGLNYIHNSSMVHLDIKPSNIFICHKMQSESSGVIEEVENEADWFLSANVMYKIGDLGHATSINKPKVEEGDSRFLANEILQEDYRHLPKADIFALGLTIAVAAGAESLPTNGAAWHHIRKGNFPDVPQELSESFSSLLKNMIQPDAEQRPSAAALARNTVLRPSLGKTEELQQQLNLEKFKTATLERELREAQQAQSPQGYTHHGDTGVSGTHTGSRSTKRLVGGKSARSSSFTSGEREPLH

[22] = molecular target: Mitogen-activated protein kinase kinase kinase 20 (Homo sapiens) (UniProt Q9NYL2); assay: Inhibition of recombinant full-length human ZAK assessed as residual activity at 10 uM using MBP as substrate incubated for 40 mins in presence of [gamma33P]ATP by scintillation counting based radiometry assay relative to control
Sequence of Mitogen-activated protein kinase kinase kinase 20 (Homo sapiens) (Q9NYL2 2-800 limits assumed): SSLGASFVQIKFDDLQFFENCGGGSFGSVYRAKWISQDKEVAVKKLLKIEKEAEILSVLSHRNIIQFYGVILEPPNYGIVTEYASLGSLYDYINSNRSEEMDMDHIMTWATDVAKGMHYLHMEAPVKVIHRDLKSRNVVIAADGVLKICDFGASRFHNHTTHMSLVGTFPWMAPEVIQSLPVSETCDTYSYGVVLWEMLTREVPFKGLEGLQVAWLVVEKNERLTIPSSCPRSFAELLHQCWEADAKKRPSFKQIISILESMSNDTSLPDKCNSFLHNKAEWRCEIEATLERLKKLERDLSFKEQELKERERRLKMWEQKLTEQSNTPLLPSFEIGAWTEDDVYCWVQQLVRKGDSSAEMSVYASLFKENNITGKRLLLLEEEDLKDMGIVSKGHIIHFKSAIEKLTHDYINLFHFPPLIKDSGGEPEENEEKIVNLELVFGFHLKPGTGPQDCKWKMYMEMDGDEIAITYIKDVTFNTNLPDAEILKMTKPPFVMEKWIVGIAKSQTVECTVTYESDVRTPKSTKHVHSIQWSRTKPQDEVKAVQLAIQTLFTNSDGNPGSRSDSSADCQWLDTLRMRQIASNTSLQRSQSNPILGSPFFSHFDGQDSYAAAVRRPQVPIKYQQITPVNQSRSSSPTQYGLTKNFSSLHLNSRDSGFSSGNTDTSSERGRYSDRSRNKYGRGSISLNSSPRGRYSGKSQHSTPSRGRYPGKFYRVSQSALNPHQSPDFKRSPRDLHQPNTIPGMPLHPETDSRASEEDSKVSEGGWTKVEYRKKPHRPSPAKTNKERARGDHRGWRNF

## C[C@@H](c1ccccc1)n1nnc2cnc3ccc(-c4cnc5[nH]ccc5c4)cc3c21
[1]
  Activity: 1%
[2]
  Activity: 101%
[3]
  Activity: -1%
[4]
  Activity: 44%
[5]
  Activity: 84%
[6]
  Activity: 102%
[7]
  Activity: 63%
[8]
  Activity: 6%
[9]
  Activity: 91%
[10]
  Activity: 3%
[11]
  Activity: 75%
[12]
  Activity: 99%
[13]
  Activity: 93%
[14]
  Activity: 105%
[15]
  Activity: 87%
[16]
  Activity: 97%
[17]
  Activity: 23%
[18]
  Activity: 79%
[19]
  Activity: 59%
[20]
  Activity: 91%
[21]
  Activity: 90%
[22]
  Activity: 8%
